Source: US20190192521A1, “Methods of Treating Arid1A-Mutated Cancers With HDAC6 Inhibitors and EZH2 Inhibitors” (The Wistar Institute of Anatomy and Biology, priority 2016, published 2019)

Test system: primary clear cell ovarian tumour cultures with (VOA4841) and without (XVOA295) ARID1A expression
Assay: colony formation / dose response, primary clear cell ovarian tumour cultures
Format: cell-based, human
Protocol: FIG. 71 illustrates the HDAC6 inhibitor ACY1215 dose response curves of primary clear cell ovarian tumour cultures with (VOA4841) and without (XVOA295) ARID1A expression; n=3 independent experiments.
Cell lines and 3D culture conditions. The protocol for using primary cultures of human ovarian clear cell tumour cells was approved by the University of British Columbia Institutional Review Board. The primary tumour cells were cultured in RPMI 1640 supplemented with 10% fetal bovine serum (FBS) and 1% penicillin/streptomycin. Ovarian clear cell carcinoma cell lines (TOV21G, OVTOKO, OVISE and RMG1) were purchased from JCRB (Japanese Collection of Research Bioresources) Cell Bank. TOV21G, OVTOKO, and OVISE cells were cultured in RPMI 1640 supplemented with 10% fetal bovine serum (FBS) and 1% penicillin/streptomycin. RMG1 cells were cultured in 1:1 Dulbecco's modified Eagle's medium (DMEM):F12 supplemented with 10% FBS. Viral packaging cells were cultured in DMEM supplemented with 10% FBS at 37° C. supplied with 5% CO2. Cells lines are authenticated at The Wistar Institute's Genomics Facility using short tandem repeat DNA profiling. Regular Mycoplasma testing was performed using LookOut Mycoplasma PCR detection (Sigma-Aldrich Co.). […]
Colony formation assays were performed as follows. […] Integrated density was measured using NIH ImageJ software.

O=C(CCCCCCNC(=O)c1cnc(N(c2ccccc2)c2ccccc2)nc1)NO [rocilinostat, 2-(diphenylamino)-N-(7-(hydroxyamino)-7-oxoheptyl)pyrimidine-5-carboxamide]
IC50 values in primary cells: comparable to those observed in cell lines
sensitivity of cultures without ARID1A expression compared to those with ARID1A expression: more sensitive
